# Earlier results, collected in patent US7994325B2, “CGRP receptor antagonists” (Merck Sharp & Dohme Corp., priority 2005, dated 2011).
# Ends that are not written are not given here.
# Columns and labels:
# CGRP receptors [1] = details: intravenously administered (Olesen et al. 2004)
# CGRP receptors [2] = details: marmoset (Doods et al. 2000)
# CGRP receptors [3] = details: rat (Escott et al. 1995)
# CGRP receptors [4] = details: rats, prior administration (Williamson et al. 1997)
Compound,clinical efficacy and safety in migraine (CGRP receptors [1]),effect on increase in facial blood flow (CGRP receptors [2]),effect on increased facial blood flow (CGRP receptors [3]),effect on increase in diameter of the middle meningeal artery (CGRP receptors [4])
NCCCC[C@H](NC(=O)[C@@H](Cc1cc(Br)c(O)c(Br)c1)NC(=O)N1CCC(N2Cc3ccccc3NC2=O)CC1)C(=O)N1CCN(c2ccncc2)CC1 [BIBN4096BS],safe and effective acute treatment for migraine,blocked,,
"CGRP(8-37): ""a fragment of CGRP that lacks seven N-terminal amino acid residues, is a selective antagonist of CGRP1""; ""a peptide CGRP antagonist"" (VTHRLAGLLSRSGGVVKNNFVPTNVGSKAF; ends and bridges not checked; UniProt P06881 90-119, looked up, fragment)",,,inhibited,blocked
